Reference: US10111842B2, “Eutectic solvents and uses thereof” (UNIVERSITY OF OSLO, priority 2014, dated 2018)

Legend:
[1] = system: Escherichia coli (ATCC 25922); assay: Bacterial studies, blue light 27 J/cm^2 or dark, drop plate CFU (Examples 4-6); format: cell-based
Protocol: (§1) Briefly, the components were mixed and dissolved in warm water (˜50° C.) before evaporation of the solvent at 45° C. for 15 min with a rotatory evaporator. The resulting NADES were transferred to polypropylene tubes with a tight cap. The individual components of each NADES were also prepared as solutions in MilliQ water in a concentration similar to the concentration in the final NADES preparation. All samples were diluted 1:1 with bacterial suspension (OD600 0.03) or 1:50, 1:100 and 1:200 with phosphate buffered saline (PBS, pH 7.4, Lonza, Verviers, Belgium) prior to dilution 1:1 with the bacterial suspension immediately before the bacterial studies.
(§2) The overnight cultures were centrifuged (4000 g, 22° C., 10 min), the medium replaced and diluted with PBS to OD600 0.03. The bacterial suspensions were mixed 1:1 with the samples described in the previous paragraph. A volume of 200 μl from each sample was transferred to the first and seventh well on each row on a 96 well plate (Nunclon sterile 96 well plate with lid, Thermo Fischer Scientific, Waltham, Mass.). Two identical plates were made each time, one for light treatment and one for dark controls. The plates containing E. faecalis or S. aureus samples were incubated for 10 min (37° C.), irradiated with blue light for 10 min (corresponding to 9.5 J/cm^2±10%) and incubated again for 10 min (37° C.). The plates containing E. coli samples were incubated for 30 min (37° C.), irradiated with blue light for 30 min (corresponding to 27 J/cm^2±10%) and incubated again for 30 min (37° C.). The plates containing the dark controls were treated similarly, but covered with aluminium foil during the irradiation period and placed beside the irradiation chamber. […] After treatment, the samples were diluted according to the 6×6 drop plate procedure, modified to 4×4 (each treatment was performed with four parallels). A volume of 15 μl from each dilution was then plated onto TSB agar plates, left to dry for a few minutes and incubated overnight (37° C.). Viable colony forming units (CFU)/ml were calculated by counting the CFUs, multiplying with the dilution factor and dividing by the application volume.
(§3) Briefly, the components of each NADES (see Table 7) were mixed and dissolved in a round flask with 50 ml of warm water (˜50° C.) before evaporation of the solvent at 45° C. for 15 min with a rotatory evaporator. TMAP (Frontier Scientific, Inc., Logan, Utah, USA) was then added to each NADES. […] The final concentration of TMAP was 1 nM. Samples of TMAP were also prepared in purified water (MilliQ) to be 1 nM after dilution 1:200 with PBS (pH 7.4, Lonza, Verviers, Belgium) or with a 6.8 mM citric acid solution (pH ˜4) and bacterial suspension.
(§4) TCPP (Frontier Scientific, Inc., Logan, Utah, USA) was added to each NADES. […] The final TCPP concentrations were 0.5 nM-1 μM. Samples of TCPP were also prepared in ethanol to be 1 nM-1 μM after dilution 1:200 with PBS (pH 7.4, Lonza, Verviers, Belgium) or with a 6.8 mM citric acid solution (pH ˜4) and bacterial suspension.

[2] = system: Staphylococcus aureus (strain Newman); assay: Bacterial studies, blue light 9.5 J/cm^2 or dark, drop plate CFU (Examples 4-6); format: cell-based
Protocol: as §1, §2, §3, §4

[3] = system: Enterococcus faecalis (ATCC 19433); assay: as above; format: cell-based
Protocol: as §1, §2, §3, §4

[4] = Polarity (ENR) testing with Nile red; format: physicochemical; settings: Nile red absorption maximum
Protocol: Polarity (ENR) testing of NADES was performed with Nile red (NR) as a solvatochromatic probe. A small amount of NR was added to each deep eutectic solvent. The recorded absorption maximum (λmax) of NR was applied in the formula ENR (kcal/mol^−1)=hcλmaxNA=28591/λmax where h is Planck's constant, c is the velocity of light and NA is Avogadro's number (Ogihara W, et al., Chem Lett 2004; 33: 1414-1415; Saxena R, et al., Chem Phys Lipids 2014; 183: 1-8).

[5] = system: C. albicans (ATCC CRM-10231); assay: Antifungal toxicity studies, blue light 27 J/cm^2 or dark (Example 8); format: cell-based, Candida albicans
Protocol: Briefly, the components of each NADES (see Table 13) were mixed and dissolved in a round flask with 50 ml of warm water ( 50° C.) before evaporation of the solvent at 45° C. for 15 min with a rotatory evaporator. The pure […] 35 and NADES 39 were mixed undiluted or after dilution 1:50 with phosphate buffered saline (PBS, Lonza, Verviers, Belgium) with the yeast suspension (1:1) in the toxicity studies. […] The concentrations of the excipients were the same as in the respective NADES after evaporation of unbound water. The solutions were diluted totally 1:1 or 1:100 with PBS and yeast suspension in the toxicity studies. […] The overnight cultures were centrifuged (4000 g, 22° C., 10 min), the medium replaced and diluted with PBS to OD600 0.1.

[6] = system: S. epidermidis (ATCC 35984); assay: Phototoxicity studies, blue light 9.5 J/cm^2 or dark (Example 7); format: cell-based, Staphylococcus epidermidis
Protocol: as §2
The concentrations were adjusted give a final concentration of 1-20 nM porphyrin in the bacterial suspension after dilution with PBS (see Table 9). Aqueous solutions of 2.7 M citric acid, 2.3 M xylitol, 2.5 M sucrose, 5 M choline chloride and pure NADES, respectively, were used to investigate the toxicity of the individual compounds and NADES without a photosensitiser. The concentrations of the excipients were the same as in the respective NADES after evaporation of unbound water. The solutions were diluted totally 1:200 (or more) in the bacterial studies.
The treatments were performed with four parallels.
Gram-positive bacteria are generally considered to be more susceptible to photodynamic therapy than Gram-negative bacteria. Therefore, S. epidermidis was incubated for 10 min (37° C.), irradiated with blue light for 10 min (9.5 J/cm^2) and incubated again for 10 min while K. pneumoniae and P. aeruginosa were incubated for 30 min (37° C.), irradiated with blue light for 30 min (27 J/cm^2) and incubated again for 30 min.

With tetra-(4-carboxyphenyl)-porphine [TCPP] the “phototoxicity to E. coli” value ([1]; 1 nM TCPP) was “not phototoxic”, the “phototoxicity to E. coli” value ([1]; 40 nM TCPP in pure PBS) was “not phototoxic” and the “photoinactivation of E. coli” value ([1]; 0.6 μM TCPP in NADES 40) was “complete photoinactivation”. For the same compound, the “surviving colony forming units per ml” value ([1]; 0.6 μM TCPP in citric acid solution, light, E. coli) was 20 000 colony forming units per ml, the “viable S. aureus after treatment” value ([2]; 1 nM TCPP in NADES 3, light) was “no viable bacteria detected” and the “phototoxicity to S. aureus” value ([2]; 1 nM TCPP in pure PBS) was “killed half of the viable bacteria”. The “photoinactivation of S. aureus” value ([2]; TCPP up to 1 μM in PBS) was “did not result in complete photoinactivation”, the “photoinactivation of S. aureus” value ([2]; TCPP up to 1 μM in pH-neutral NADES 26) was “did not result in complete photoinactivation” and the “eradication of E. faecalis after photodynamic treatment” value ([3]; 1 nM TCPP in acidic NADES 3) was “almost complete eradication”. The “eradication of E. faecalis after photodynamic treatment” value ([3]; 1 nM TCPP in acidic NADES 14) was “almost complete eradication”, the “eradication of E. faecalis after photodynamic treatment” value ([3]; 1 nM TCPP in acidic NADES 40) was “almost complete eradication” and the “eradication of E. faecalis after photodynamic treatment” value ([3]; 1 nM TCPP in citric acid solution) was “almost complete eradication”. The “phototoxicity to E. faecalis” value ([3]; 1 nM TCPP in pure PBS) was “not very phototoxic”, the “eradication of E. faecalis after light treatment” value ([3]; 1 μM TCPP in neutral NADES 26) was “complete eradication” and the “surviving colony forming units” value ([3]; 1 μM TCPP in pure PBS, light, E. faecalis) was “approximately 300 colony forming units”.
With `CO` [methanol] the “ENR” value [4] was 51.9 kcal/mol.
In the case of `C[N+](C)(C)CCO.[Cl-]` [Choline chloride], the “toxicity of NADES 26 components to E. coli” value [1] is reported as “non-toxic”, the “reduction in viable C. albicans” value [5] is reported as “No significant reduction” and the “toxicity of individual NADES component to E. faecalis” value [3] is reported as “not toxic”. For the same compound, the “% survival (9.5 J/cm^2)” value [6] was 124 ± 7% and the “% survival (dark)” value [6] was 104 ± 12%.
With `O` [water] the “ENR” value [4] was 48.2 kcal/mol.
With `O=C(O)CC(O)C(=O)O` (racemic) [Malic acid, DL-malic acid] the “toxicity to E. coli” value ([1]; 2.1 M solution, 1:1 dilution and 1:100 dilution) was “highly toxic”, the “toxicity / eradication of S. aureus” value ([2]; dilution 1:1 with bacterial suspension) was “toxic” and the “toxicity to S. aureus” value ([2]; dilution 1:100) was “not toxic”. For the same compound, the “photoinactivation of E. faecalis” value ([3]; dilution 1:1 and 1:100 with PBS, blue light) was “complete photoinactivation”.
For `O=C(O)/C=C\C(=O)O` [Maleic acid], the “toxicity to E. coli” value ([1]; 3.1 M solution, even at dilution 1:400) was “highly toxic”, the “toxicity to S. aureus” value ([2]; dilution 1:400) was “no longer toxic” and the “eradication of S. aureus” value ([2]; dilution ratios 1:1 up to 1:200, total treatment 30 min) was “complete eradication”. For the same compound, the “eradication of E. faecalis” value ([3]; dilutions 1:1 to 1:400 with PBS (maleic acid 3.1 M before dilution)) was “complete eradication”.
